{"source": "PubChem BioAssay (NCI)", "experiment_in_all_cases": "DTP human tumour cell line panel, 48 h", "key": {"[1]": {"tested_on": "DMS 273 small cell lung"}, "[2]": {"tested_on": "HCT-15 colon"}, "[3]": {"tested_on": "HOP-62 NSCLC"}, "[4]": {"tested_on": "HT29 colon"}, "[5]": {"tested_on": "KM20L2 colon"}, "[6]": {"tested_on": "NCI-H226 lung"}, "[7]": {"tested_on": "NCI-H460 lung"}, "[8]": {"tested_on": "RXF 393 renal"}, "[9]": {"tested_on": "SF-268 CNS"}, "[10]": {"tested_on": "SN12C renal"}}, "note": "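How tested: cells in 96-well plates exposed to compound for 48 hours at five concentrations. TGI: total growth inhibition.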", "data": [{"compound": "COC(=O)C1C(=O)O[C@@H](c2ccc(OC)c(OC)c2OC)C1C(=O)OC", "note": "(mixture of isomers)", "values": [{"measurement": "TGI", "setting": "[1]", "value": "> 100", "unit": "µM"}, {"measurement": "TGI", "setting": "[2]", "value": "> 100", "unit": "µM"}, {"measurement": "TGI", "setting": "[3]", "value": "> 100", "unit": "µM"}, {"measurement": "TGI", "setting": "[4]", "value": "> 100", "unit": "µM"}, {"measurement": "TGI", "setting": "[5]", "value": "> 100", "unit": "µM"}, {"measurement": "TGI", "setting": "[6]", "value": "> 100", "unit": "µM"}, {"measurement": "TGI", "setting": "[7]", "value": "> 100", "unit": "µM"}, {"measurement": "TGI", "setting": "[8]", "value": "> 100", "unit": "µM"}, {"measurement": "TGI", "setting": "[9]", "value": "> 100", "unit": "µM"}, {"measurement": "TGI", "setting": "[10]", "value": "> 100", "unit": "µM"}]}, {"compound": "Cc1cc(=O)n(-c2c(C)cccc2Cl)c(/C=C(\\O)c2ccncc2)n1", "values": [{"measurement": "TGI", "setting": "[1]", "value": "> 100", "unit": "µM"}, {"measurement": "TGI", "setting": "[2]", "value": "> 100", "unit": "µM"}, {"measurement": "TGI", "setting": "[3]", "value": "> 100", "unit": "µM"}, {"measurement": "TGI", "setting": "[4]", "value": "> 100", "unit": "µM"}, {"measurement": "TGI", "setting": "[5]", "value": "> 100", "unit": "µM"}, {"measurement": "TGI", "setting": "[6]", "value": "> 100", "unit": "µM"}, {"measurement": "TGI", "setting": "[7]", "value": "> 100", "unit": "µM"}, {"measurement": "TGI", "setting": "[8]", "value": "> 100", "unit": "µM"}, {"measurement": "TGI", "setting": "[9]", "value": "> 100", "unit": "µM"}, {"measurement": "TGI", "setting": "[10]", "value": "> 100", "unit": "µM"}]}, {"compound": "COc1ccc2c(c1)[n+](=O)c(C(=O)C/C(=N/NC(=O)C[N+](C)(C)C)C(=O)Nc1cccc(C)c1C)c(C)n2O", "values": [{"measurement": "TGI", "setting": "[1]", "value": "> 100", "unit": "µM"}, {"measurement": "TGI", "setting": "[2]", "value": "> 100", "unit": "µM"}, {"measurement": "TGI", "setting": "[3]", "value": "> 100", "unit": "µM"}, {"measurement": "TGI", "setting": "[4]", "value": "> 100", "unit": "µM"}, {"measurement": "TGI", "setting": "[5]", "value": "> 100", "unit": "µM"}, {"measurement": "TGI", "setting": "[6]", "value": "> 100", "unit": "µM"}, {"measurement": "TGI", "setting": "[7]", "value": "> 100", "unit": "µM"}, {"measurement": "TGI", "setting": "[8]", "value": "> 100", "unit": "µM"}, {"measurement": "TGI", "setting": "[9]", "value": "> 100", "unit": "µM"}, {"measurement": "TGI", "setting": "[10]", "value": "> 100", "unit": "µM"}]}, {"compound": "CCOC(=O)C(NO)C(Sc1ccccc1)c1ccc(OC)cc1", "note": "(stereo not given)", "values": [{"measurement": "TGI", "setting": "[1]", "value": "> 100", "unit": "µM"}, {"measurement": "TGI", "setting": "[2]", "value": "> 100", "unit": "µM"}, {"measurement": "TGI", "setting": "[3]", "value": "> 100", "unit": "µM"}, {"measurement": "TGI", "setting": "[4]", "value": "> 100", "unit": "µM"}, {"measurement": "TGI", "setting": "[5]", "value": "> 100", "unit": "µM"}, {"measurement": "TGI", "setting": "[6]", "value": "> 100", "unit": "µM"}, {"measurement": "TGI", "setting": "[7]", "value": "> 100", "unit": "µM"}, {"measurement": "TGI", "setting": "[8]", "value": 52.3, "unit": "µM"}, {"measurement": "TGI", "setting": "[9]", "value": "> 100", "unit": "µM"}, {"measurement": "TGI", "setting": "[10]", "value": "> 100", "unit": "µM"}]}, {"compound": "CN(C)C(=O)NC(=S)N(C)C", "values": [{"measurement": "TGI", "setting": "[1]", "value": "> 100", "unit": "µM"}, {"measurement": "TGI", "setting": "[2]", "value": "> 100", "unit": "µM"}, {"measurement": "TGI", "setting": "[3]", "value": 1.52, "unit": "µM"}, {"measurement": "TGI", "setting": "[4]", "value": "> 100", "unit": "µM"}, {"measurement": "TGI", "setting": "[5]", "value": "> 100", "unit": "µM"}, {"measurement": "TGI", "setting": "[6]", "value": "> 100", "unit": "µM"}, {"measurement": "TGI", "setting": "[7]", "value": "> 100", "unit": "µM"}, {"measurement": "TGI", "setting": "[8]", "value": "> 100", "unit": "µM"}, {"measurement": "TGI", "setting": "[9]", "value": "> 100", "unit": "µM"}, {"measurement": "TGI", "setting": "[10]", "value": "> 100", "unit": "µM"}]}, {"compound": "CC1=C(C(=O)NCc2ccccc2)C(c2ccccc2C)C(C(=O)NCc2ccccc2)=C(C)N1", "values": [{"measurement": "TGI", "setting": "[1]", "value": "> 69.9", "unit": "µM"}, {"measurement": "TGI", "setting": "[2]", "value": 36.6, "unit": "µM"}, {"measurement": "TGI", "setting": "[3]", "value": 69.7, "unit": "µM"}, {"measurement": "TGI", "setting": "[4]", "value": 73, "unit": "µM"}, {"measurement": "TGI", "setting": "[5]", "value": "> 75.5", "unit": "µM"}, {"measurement": "TGI", "setting": "[6]", "value": "> 84.6", "unit": "µM"}, {"measurement": "TGI", "setting": "[7]", "value": 45.9, "unit": "µM"}, {"measurement": "TGI", "setting": "[8]", "value": 43.7, "unit": "µM"}, {"measurement": "TGI", "setting": "[9]", "value": 57.6, "unit": "µM"}, {"measurement": "TGI", "setting": "[10]", "value": "> 63", "unit": "µM"}]}]}
